Laboratory results from patent US20220168314A1, “MEDICAMENT FOR PROPHYLAXIS OR TREATMENT OF PULMONARY FIBROSIS” (MITSUBISHI TANABE PHARMA CORPORATION, priority 2019, published 2022).

How the values were obtained:
[1] = test system: bleomycin-induced pulmonary fibrosis mice; details: literature reports; cited from earlier work
[2] = test system: bleomycin intra airway administration induced mouse pulmonary fibrosis model; assay: Lung functions in bleomycin intra airway administration induced mouse pulmonary fibrosis model (Example 1); format: in vivo; details: Day 21; oral gavage Day 7-21; compound (I) 10 mg/kg once a day, eplerenone 50 mg/kg twice a day; vs bleomycin control group
Procedure: (§1) C57/BL6NTAC mice (male; body weight at start of a test: 25 g) (manufactured by The Jackson Laboratory) were grouped into the following 4 groups (12 mice in each group):
(§2) Group 1: normal group Group 2: no drug administration group (control group) Group 3: drug (the compound (I)) administration group Group 4: drug (eplerenone; positive control) administration group
(§3) On a day (Day 0) when the test was started, bleomycin (3.25 U/kg) was administered dropwise through airways to the mice of Groups 2-4 as test groups. Instead of bleomycin, saline was administered dropwise through airways to the mice of Group 1 as a normal group. On a seventh day (Day 7) after the start of the test, with a dosing schedule of twice a day in the morning and afternoon, oral gavage administration (twice in the morning and afternoon) of a vehicle (0.1% HCO60+0.5% CMC) was started for the mice of Groups 1 and 2; a 2 mg/ml solution of the compound (I) was prepared and oral gavage administration (in the morning) thereof at a dose of 10 mg/kg and oral gavage administration (in the afternoon) of a vehicle (0.1% HCO60+0.5% CMC) were started for the mice of Group 3; and oral gavage administration (twice in the morning and afternoon) of eplerenone at a dose of 50 mg/kg was started for the mice of Group 4. Thereafter, until a 21st day (Day 21) after the start of the test, the administrations were continued at the same dosing schedules. After the administrations were completed (Day 21), the following evaluation items were examined.
The following evaluation items were measured using a commercially available respiratory and lung function evaluation system (measurement site: around an airway). Evaluation of 4 items including: 1) inspiratory capacity (mL); 2) compliance (mL/cmH2O); 3) elastance) (cmH2O/mL); and 4) resistance (cmH2O.s/mL)
The “inspiratory capacity” corresponds to an amount of air discharged from the lungs at a stage when slowly breathing out to an end of a breath has completed, and is an indicator of a volume of the lungs. As pulmonary fibrosis progresses and the lung hardens, the volume of the lungs shrinks, and the inspiratory capacity decreases.
The “compliance” indicates a change in a lung capacity due to a certain change in pressure. […] As pulmonary fibrosis progresses and the lungs harden, the volume of the lungs shrinks, and the compliance decreases.
The “elastance” is a value represented by a reciprocal of the compliance, and is an indicator representing the difficulty for the lungs to stretch. As pulmonary fibrosis progresses and the lungs harden, the elastance increases.
The “resistance” means an airway resistance. The resistance is a resistance received by an air current in respiration, and a larger resistance means that it is harder for air to flow through the airway.

[3] = test system: bleomycin intra airway administration induced mouse pulmonary fibrosis model; assay: Lung pathological tissue (picrosirius red staining, hydroxyproline content), Example 1; format: in vivo; details: Day 21, compound (I) 10 mg/kg once a day, eplerenone 50 mg/kg twice a day; for positive rate (PSR Positive %) in picrosirius red staining: left lung lobes; for hydroxyproline content (μg): lower lung lobes and middle lung lobe
Procedure: as §1, §2, §3
Pulmonary fibrosis is caused by that activated fibroblasts are accumulated at a fibrosis site and a large amount of type I collagen is produced. Therefore, based on a degree of collagen accumulation in a lung tissue, a degree of pulmonary fibrosis can be evaluated. Type I collagen and type III collagen in a tissue are stained by picrosirius red staining. Therefore, a situation of collagen accumulation can be image-diagnosed, and quantitative evaluation can also be performed by calculating a staining positive rate.
Specifically, the above staining was performed on a tissue section of the lungs, and an area of a stained site (fibrosis site) was measured and evaluated.
Hydroxyproline is a major component of collagen and is substantially absent in other proteins. Therefore, by measuring a content of hydroxyproline in a tissue, an amount of collagen can be evaluated.

[4] = test system: gene expression associated with pulmonary fibrosis; assay: Gene expression fluctuation associated with pulmonary fibrosis (mRNA, real time PCR, upper lung lobes), Example 1; format: in vivo, mouse; details: Day 21, compound (I) 10 mg/kg once a day, eplerenone 50 mg/kg twice a day
Procedure: as §1, §2, §3
(iii) Evaluation of Gene Expression Fluctuation Associated with Pulmonary Fibrosis (Quantification of mRNA; Fold Increase) (Upper Lung Lobes)
According to a conventional method, mRNA was extracted from a homogenized upper lung lobe, and an extremely small amount of the mRNA was quantified using a real time PCR system.

CYP3A4 = CYP3A4 (Homo sapiens, UniProt P08684); details: background statement; cited from earlier work
[5] = Concentration of the compound (I) in blood plasma, Example 2; format: in vivo, mouse
Procedure: (§4) From an eighth day (Day 8) after the start of the test, oral gavage administration of a vehicle (0.1 ml per 10 g body weight) to the mice of Group 1 as the normal group and the mice of Group 2 as the no drug administration group was started, and, on the other hand, oral gavage administration of the compound (I) of a predetermined dosage to the mice of the drug administration groups of Groups 3-5 was started (for all groups, once a day in the morning). Thereafter, until a 21st day (Day 21) after the start of the test, the administrations were continued. After the administrations were completed, the following items were evaluated.
Evaluation of a concentration (nM) of the compound (I) in a blood plasma at 2 hours (before the above evaluations) and at 24 hours after the final administration (Day 21) (similar to Example 1, blood samples obtained by tail vain blood sampling were evaluated.)

[6] = Concentration of the compound (I) in blood plasma, Example 1; format: in vivo, mouse; details: 10 mg/kg oral
Procedure: as §3, with “After the administrations were completed (Day 21), the following evaluation items were examined.” left out
At 2 hours (before the above evaluations) and at 18 hours from the final administration of the compound (I) (Day 21), a small amount of blood was collected from a tail vein under anesthesia, and plasma was separated with an ice-cooled centrifuge, and a concentration (nM) of the compound (I) in the plasma was measured using a conventional method.

[7] = test system: bleomycin subcutaneous continuous infusion induced mouse pulmonary fibrosis model; assay: Lung functions in bleomycin subcutaneous continuous infusion induced mouse pulmonary fibrosis model (Example 2); format: in vivo
Procedure: (§5) Body weights of the mice of the test group were measured daily, and, on the seventh day (Day 7) after the start of the test, the mice of the test group were randomly grouped as follows using an amount of decrease in body weight as an indicator.
(§6) Group 2: no drug administration group (control group) (12 mice) Group 3: drug (the compound (I), 3 mg/kg) administration group (12 mice) Group 4: drug (the compound (I), 10 mg/kg) administration group (12 mice) Group 5: drug (the compound (I), 30 mg/kg) administration group (12 mice)
as §4
Evaluation of 4 items including: 1) inspiratory capacity (mL); 2) compliance (mL/cmH2O); 3) elastance) (cmH2O/mL); and 4) resistance (cmH2O.s/mL)

[8] = test system: bleomycin subcutaneous continuous infusion induced mouse pulmonary fibrosis model; assay: Lung pathological tissue (picrosirius red staining, hydroxyproline content), Example 2; format: in vivo; details: for hydroxyproline content (μg): right lung lobes
Procedure: as §5, §6, §4
i) Evaluation by Picrosirius Red Staining (Left Lung Lobes)
ii) Evaluation of Hydroxyproline Content (μg) (Right Lung Lobes)

[9] = 30 mg/kg oral once a day, Day 8-21 (Group 5)
[10] = 3, 10 and 30 mg/kg oral once a day, Day 8-21 (Groups 3-5), dose-dependent

Chain of CYP3A4 (P08684 whole entry): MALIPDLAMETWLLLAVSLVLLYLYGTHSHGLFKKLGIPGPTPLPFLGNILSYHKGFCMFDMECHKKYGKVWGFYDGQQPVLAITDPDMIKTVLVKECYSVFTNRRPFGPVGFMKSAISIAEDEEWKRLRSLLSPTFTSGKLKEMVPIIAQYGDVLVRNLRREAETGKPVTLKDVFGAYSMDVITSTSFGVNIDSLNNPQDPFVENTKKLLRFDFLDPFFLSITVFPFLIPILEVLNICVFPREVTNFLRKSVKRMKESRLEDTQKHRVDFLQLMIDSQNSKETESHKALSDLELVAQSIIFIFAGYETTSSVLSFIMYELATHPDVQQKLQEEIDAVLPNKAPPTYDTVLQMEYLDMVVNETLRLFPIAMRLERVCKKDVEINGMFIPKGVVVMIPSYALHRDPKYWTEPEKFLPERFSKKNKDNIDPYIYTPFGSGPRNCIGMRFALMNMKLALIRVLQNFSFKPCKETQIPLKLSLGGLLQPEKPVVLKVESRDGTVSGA

| SMILES | compliance (mL/cmH2O) [2] | elastance (cmH2O/mL) [2] | inspiratory capacity (mL) [2] | resistance (cmH2O.s/mL) [2] | positive rate (PSR Positive %) in picrosirius red staining [3] | hydroxyproline content (μg) [3] | CTGF gene expression [4] | Ccl2 gene expression [4] | PAI-1 gene expression [4] | TGFβ gene expression [4] | fibronectin gene expression [4] | type I collagen gene expression [4] | type III collagen gene expression [4] | type IV collagen gene expression [4] | vimentin gene expression [4] | αSMA gene expression [4] | further results |
| --- | --- | --- | --- | --- | --- | --- | --- | --- | --- | --- | --- | --- | --- | --- | --- | --- | --- |
| CC(=O)S[C@@H]1CC2=CC(=O)CC[C@]2(C)[C@H]2CC[C@@]3(C)[C@@H](CC[C@@]34CCC(=O)O4)[C@H]12 [spironolactone] |  |  |  |  |  |  |  |  |  |  |  |  |  |  |  |  | accumulation of hydroxyproline (indicator of tissue fibrosis) [1]: improves |
| COC(=O)[C@@H]1CC2=CC(=O)CC[C@]2(C)[C@@]23O[C@@H]2C[C@@]2(C)[C@@H](CC[C@@]24CCC(=O)O4)[C@H]13 [eplerenone, reference compound] | significantly improved | significantly improved | significantly improved | significantly improved | significantly improved | significantly improved | significantly reduced | significantly reduced | significantly reduced | tendency to increase | significantly reduced | could not reduce | could not reduce | could not reduce | significantly reduced | could not reduce | metabolizing enzyme (CYP3A4): mainly metabolized by CYP3A4 |
| CC1(C)Oc2cc(NS(C)(=O)=O)ccc2N(c2ccc(F)cc2)C1=O [compound (I)] | significantly improving | significantly improving | significantly improved to an extent exceeding the effect of eplerenone | very significantly improved to a level of the normal group exceeding the effect of eplerenone | significantly improving | significantly improved to an extent exceeding the effect of eplerenone | significantly reduced | significantly reduced | significantly reduced | tendency to decrease | significantly reduced | significantly reduced | significantly reduced | significantly reduced | significantly reduced | significantly reduced | concentration of the compound (I) in a blood plasma ([5]; 2 hours after the final administration (Day 21), 3, 10, 30 mg/kg oral): dose-dependent concentration; concentration of the compound (I) in a blood plasma ([5]; 24 hours after the final administration (Day 21), 30 mg/kg oral): sufficient concentration; concentration of the compound (I) in a blood plasma ([6]; 2 hours after the final administration (Day 21)): sufficient concentration; concentration of the compound (I) in a blood plasma ([6]; 18 hours after the final administration (Day 21)): sufficient concentration; inspiratory capacity (mL) ([7]; 10 mg/kg oral once a day, Day 8-21 (Group 4)): significantly improved; inspiratory capacity (mL) [7, 9]: significantly improved; resistance (cmH2O.s/mL) [7, 9]: significantly improved; compliance (mL/cmH2O) [7, 10]: significantly improved; elastance (cmH2O/mL) [7, 10]: significantly improved; positive rate in picrosirius red staining ([8]; left lung lobes, all the doses 3, 10, 30 mg/kg oral once a day (Groups 3-5)): significantly decreased; hydroxyproline content (μg) ([8]; 3 mg/kg oral once a day, Day 8-21 (Group 3)): significantly decreased; hydroxyproline content (μg) [8, 9]: significantly decreased |
